Like-named read-outs stand apart in the source and are kept apart here.
Biological target: T1, Androgen Receptor (Homo sapiens, UniProt P10275)
T1 construct: endogenous in cells; host or cells: VCaP cells
T1 sequence (P10275 1-920): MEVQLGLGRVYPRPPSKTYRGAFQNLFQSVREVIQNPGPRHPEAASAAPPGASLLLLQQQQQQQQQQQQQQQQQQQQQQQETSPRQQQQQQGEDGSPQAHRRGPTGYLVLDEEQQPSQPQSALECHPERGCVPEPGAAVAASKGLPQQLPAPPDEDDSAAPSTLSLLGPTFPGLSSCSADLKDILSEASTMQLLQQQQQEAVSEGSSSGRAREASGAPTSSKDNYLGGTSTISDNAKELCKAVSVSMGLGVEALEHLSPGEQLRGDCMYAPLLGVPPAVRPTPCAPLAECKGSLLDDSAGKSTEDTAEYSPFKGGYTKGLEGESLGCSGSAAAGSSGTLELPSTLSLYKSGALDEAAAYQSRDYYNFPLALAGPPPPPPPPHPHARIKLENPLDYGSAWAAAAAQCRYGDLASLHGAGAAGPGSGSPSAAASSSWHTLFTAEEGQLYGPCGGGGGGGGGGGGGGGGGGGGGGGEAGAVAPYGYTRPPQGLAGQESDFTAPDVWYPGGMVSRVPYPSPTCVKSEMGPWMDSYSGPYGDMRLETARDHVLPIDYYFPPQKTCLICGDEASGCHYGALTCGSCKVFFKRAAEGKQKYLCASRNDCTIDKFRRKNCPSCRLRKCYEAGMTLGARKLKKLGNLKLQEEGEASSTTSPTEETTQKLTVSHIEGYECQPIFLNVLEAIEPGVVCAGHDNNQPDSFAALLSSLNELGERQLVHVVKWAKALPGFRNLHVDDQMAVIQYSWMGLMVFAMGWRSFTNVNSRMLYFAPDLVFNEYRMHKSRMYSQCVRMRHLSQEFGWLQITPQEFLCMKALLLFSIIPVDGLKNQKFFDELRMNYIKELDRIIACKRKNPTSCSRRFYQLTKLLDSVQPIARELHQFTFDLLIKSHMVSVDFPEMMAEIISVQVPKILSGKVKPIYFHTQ
Experiment: Androgen Receptor ELISA assay (PathScan AR ELISA) in VCaP cells: AR degradation, Dmax and DC50
Type: cell-based
Conditions: for DC50: read-out: VCaP DC50; for Dmax: VCaP
Procedure, shortened: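 VCaP cells in phenol red-free RPMI with 5% charcoal-stripped FBS were grown at least 3 days, then given compound as 7 half-log doses in 0.1% DMSO with 0.1 nM R1881 for 24 h. Lysates went into a sandwich AR ELISA with TMB read at 450 nm.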

[1] = read-out: VCaP Dmax (%), VCaP cells, Table 36
[2] = VCaP cells, Table 36, read-out: VCaP Dmax (%)

Row | SMILES | DC50 (VCaP cells, Table 36) [nM] | Dmax (read-out: VCaP Dmax (%)) [%] | Dmax [1] [%] | Dmax [2] [%]
1 | Cc1ncsc1-c1ccc([C@H](C)NC(=O)[C@@H]2C[C@@H](O)CN2C(=O)[C@@H](NC(=O)CN2CCN(CCC3(c4ccc(C(=O)N[C@H]5C(C)(C)[C@H](Oc6ccc(C#N)c(Cl)c6)C5(C)C)cc4)COC3)CC2)C(C)(C)C)cc1 [Example 744, (2S,4R)-1-((S)-2-(2-(4-(2-(3-(4-(((1r,3r)-3-(3-chloro-4-cyanophenoxy)-2,2,4,4-tetramethylcyclobutyl)carbamoyl)phenyl)oxetan-3-yl)ethyl)piperazin-1-yl)acetamido)-3,3-dimethylbutanoyl)-4-hydroxy-N-((S)-1-(4-(4-methylthiazol-5-yl)phenyl)ethyl)pyrrolidine-2-carboxamide] | > 501 | < 25 |  | 
2 | Cc1ncsc1-c1ccc([C@H](C)NC(=O)[C@@H]2C[C@@H](O)CN2C(=O)[C@H](NC(=O)CN2CCN(CCCc3ccc(C(=O)N[C@H]4C(C)(C)[C@H](Oc5ccc(C#N)c(C#N)c5)C4(C)C)cc3)CC2)C2COC2)cc1 [Example 745, (2S,4R)-1-((R)-2-(2-(4-(3-(4-(((1r,3r)-3-(3,4-dicyanophenoxy)-2,2,4,4-tetramethylcyclobutyl)carbamoyl)phenyl)propyl)piperazin-1-yl)acetamido)-2-(oxetan-3-yl)acetyl)-4-hydroxy-N-((S)-1-(4-(4-methylthiazol-5-yl)phenyl)ethyl)pyrrolidine-2-carboxamide] | > 501 |  | < 25 | 
3 | Cc1ncsc1-c1ccc([C@H](C)NC(=O)[C@@H]2C[C@@H](O)CN2C(=O)[C@@H](NC(=O)CN2CCN(CCCc3ccc(C(=O)N[C@H]4C(C)(C)[C@H](Oc5ccc(C#N)c(C#N)c5)C4(C)C)cc3)CC2)C2COC2)cc1 [Example 746, (2S,4R)-1-((S)-2-(2-(4-(3-(4-(((1r,3r)-3-(3,4-dicyanophenoxy)-2,2,4,4-tetramethylcyclobutyl)carbamoyl)phenyl)propyl)piperazin-1-yl)acetamido)-2-(oxetan-3-yl)acetyl)-4-hydroxy-N-((S)-1-(4-(4-methylthiazol-5-yl)phenyl)ethyl)pyrrolidine-2-carboxamide] | > 501 |  | < 25 | 
4 | Cc1ncsc1-c1ccc([C@H](C)NC(=O)[C@@H]2C[C@@H](O)CN2C(=O)[C@@H](NC(=O)CCCc2ccc(C(=O)N[C@H]3C(C)(C)[C@H](Oc4ccc(C#N)c(Cl)c4)C3(C)C)cc2)C(C)(C)C)cc1 [Example 747, (2S,4R)-1-((S)-2-(4-(4-(((1r,3S)-3-(3-chloro-4-cyanophenoxy)-2,2,4,4-tetramethylcyclobutyl)carbamoyl)phenyl)butan-amido)-3,3-dimethylbutanoyl)-4-hydroxy-N-((S)-1-(4-(4-methylthiazol-5-yl)phenyl)ethyl)pyrrolidine-2-carboxamide] | > 501 |  |  | < 25
5 | Cc1ncsc1-c1ccc([C@H](C)NC(=O)[C@@H]2C[C@@H](O)CN2C(=O)C(NC(=O)CCCCCc2ccc(C(=O)N[C@H]3C(C)(C)[C@H](Oc4ccc(C#N)c(Cl)c4)C3(C)C)cc2)C(C)(C)C)cc1 (stereo partly drawn) [Example 748, (2S,4R)-1-((S)-2-(6-(4-(((1r,3r)-3-(3-chloro-4-cyanophenoxy)-2,2,4,4-tetramethylcyclobutyl)carbamoyl)phenyl)hexan-amido)-3,3-dimethylbutanoyl)-4-hydroxy-N-((S)-1-(4-(4-methylthiazol-5-yl)phenyl)ethyl)pyrrolidine-2-carboxamide] | < 50 |  |  | 26 to 50
6 | Cc1ncsc1-c1ccc([C@H](C)NC(=O)C2C[C@@H](O)CN2C(=O)[C@@H](NC(=O)CCCCCCc2ccc(C(=O)N[C@H]3C(C)(C)[C@H](Oc4ccc(C#N)c(Cl)c4)C3(C)C)cc2)C(C)(C)C)cc1 (stereo partly drawn) [Example 749, (2S,4R)-1-((S)-2-(7-(4-(((1r,3r)-3-(3-chloro-4-cyanophenoxy)-2,2,4,4-tetramethylcyclobutyl)carbamoyl)phenyl)heptan-amido)-3,3-dimethylbutanoyl)-4-hydroxy-N-((S)-1-(4-(4-methylthiazol-5-yl)phenyl)ethyl)pyrrolidine-2-carboxamide] | < 50 |  |  | > 71
7 | Cc1ncsc1-c1ccc([C@H](C)NC(=O)[C@@H]2C[C@@H](O)CN2C(=O)[C@H](NC(=O)CN2CCN(CCCc3ccc(C(=O)N[C@H]4C(C)(C)[C@H](Oc5ccc(C#N)c(Cl)c5)C4(C)C)cc3)CC2)C2COC2)cc1 [Example 750, (2S,4R)-1-((R)-2-(4-(4-(3-(4-(((1r,3r)-3-(3-chloro-4-caynophenoxy)-2,2,4,4-tetramethylcyclobutyl)carbamoyl)phenyl)propyl)piperazin-1-yl)acetamido)-2-(oxetan-3-yl)acetyl)-4-hydroxy-N-((S)-1-(4-(4-methylthiazol-5-yl)phenyl)ethyl)pyrrolidine-2-carboxamide] | > 501 |  |  | < 25
8 | Cc1ncsc1-c1ccc([C@H](C)NC(=O)[C@@H]2C[C@@H](O)CN2C(=O)[C@@H](NC(=O)CN2CCN(CCCc3ccc(C(=O)N[C@H]4C(C)(C)[C@H](Oc5ccc(C#N)c(Cl)c5)C4(C)C)cc3)CC2)C2COC2)cc1 [Example 751, (2S,4R)-1-((S)-2-(2-(4-(3-(4-(((1r,3r)-3-(3-chloro-4-cyanophenoxy)-2,2,4,4-tetramethylcyclobutyl)carbamoyl)phenyl)propyl)piperazin-1-yl)acetamido)-2-(oxetan-3-yl)acetyl)-4-hydroxy-N-((S)-1-(4-(4-methylthiazol-5-yl)phenyl)ethyl)pyrrolidine-2-carboxamide] | > 501 |  |  | < 25
9 | Cc1ncsc1-c1ccc(CNC(=O)[C@@H]2C[C@@H](O)CN2C(=O)[C@H](C(C)C)N2Cc3ccccc3C2=O)c(N2CCN(CCCc3ccc(C(=O)N[C@H]4C(C)(C)[C@H](Oc5ccc(C#N)c(Cl)c5)C4(C)C)cc3)CC2)c1 [Example 752, (2S,4R)-N-(2-(4-(3-(4-(((1r,3r)-3-(3-chloro-4-cyanophenoxy)-2,2,4,4-tetramethylcyclobutyl)carbamoyl)phenyl)propyl)piperazin-1-yl)-4-(4-methylthiazol-5-yl)benzyl)-4-hydroxy-1-((S)-3-methyl-2-(1-oxoisoindolin-2-yl)butanoyl)pyrrolidine-2-carboxamide] | < 50 |  |  | 51 to 70
10 | Cc1ncsc1-c1ccc(CNC(=O)[C@@H]2C[C@@H](O)CN2C(=O)[C@H](C(C)C)N2Cc3ccccc3C2=O)c(N2CCN(CCCc3ccc(C(=O)N[C@H]4C(C)(C)[C@H](Oc5ccc(C#N)c(C(F)(F)F)c5)C4(C)C)cc3)CC2)c1 [Example 753, (2S,4R)-N-(2-(4-(3-(4-(((1r,3r)-3-(4-cyano-3-(trifluoromethyl)phenoxy)-2,2,4,4-tetramethylcyclobutyl)carbamoyl)phenyl)propyl)piperazin-1-yl)-4-(4-methylthiazol-5-yl)benzyl)-4-hydroxy-1-((S)-3-methyl-2-(1-oxoisoindolin-2-yl)butanoyl)pyrrolidine-2-carboxamide] | < 50 |  |  | 51 to 70
11 | CC(C)[C@@H](C(=O)N1C[C@H](O)C[C@H]1C(=O)NCc1ccc(Cl)cc1N1CCN(CCCc2ccc(C(=O)N[C@H]3C(C)(C)[C@H](Oc4ccc(C#N)c(Cl)c4)C3(C)C)cc2)CC1)N1Cc2ccccc2C1=O [Example 754, (2S,4R)-N-(4-chloro-2-(4-(3-(4-(((1r,3r)-3-(3-chloro-4-cyanophenoxy)-2,2,4,4-tetramethylcyclobutyl)carbamoyl)phenyl)propyl)piperazin-1-yl)benzyl)-4-hydroxy-1-((S)-3-methyl-2-(1-oxoisoindolin-2-yl)butanoyl)pyrrolidine-2-carboxamide] | > 501 |  |  | < 25
12 | Cc1ncsc1-c1ccc([C@H](C)NC(=O)[C@@H]2C[C@@H](O)CN2C(=O)[C@@H](NC(=O)CCCCc2ccc(C(=O)N[C@H]3C(C)(C)[C@H](Oc4ccc(C#N)c(Cl)c4)C3(C)C)cc2)C(C)(C)C)cc1 [Example 755, (2S,4R)-1-((S)-2-(5-(4-(((1r,3S)-3-(3-chloro-4-cyanophenoxy)-2,2,4,4-tetramethylcyclobutyl)carbamoyl)phenyl)pentan-amido)-3,3-dimethylbutanoyl)-4-hydroxy-N-((S)-1-(4-(4-methylthiazol-5-yl)phenyl)ethyl)pyrrolidine-2-carboxamide] | > 501 |  |  | 26 to 50
